A solubility (mole fraction) (in 1,4-dioxane, 288.15 K) of 5.76e-05, a solubility (mole fraction) (in 1,4-dioxane, 293.15 K) of 7.08e-05 and a solubility (mole fraction) (in 1,4-dioxane, 298.15 K) of 8.42e-05 were found for `CCCc1ncc(C[n+]2ccccc2C)c(N)n1.Cl.[Cl-]` in this work. For the same compound, the solubility (mole fraction) (in 1,4-dioxane, 303.15 K) was 9.99e-05, the solubility (mole fraction) (in 1,4-dioxane, 308.15 K) was 0.000115 and the solubility (mole fraction) (in 1,4-dioxane, 313.15 K) was 0.000132. It also gave a solubility (mole fraction) (in acetone, 273.15 K) of 0.000227, a solubility (mole fraction) (in acetone, 278.15 K) of 0.000259 and a solubility (mole fraction) (in acetone, 283.15 K) of 0.000291. It also gave a solubility (mole fraction) (in acetone, 288.15 K) of 0.000325, a solubility (mole fraction) (in acetone, 293.15 K) of 0.000359 and a solubility (mole fraction) (in acetone, 298.15 K) of 0.000401. It also gave a solubility (mole fraction) (in acetone, 303.15 K) of 0.000444, a solubility (mole fraction) (in acetone, 308.15 K) of 0.000487 and a solubility (mole fraction) (in acetone, 313.15 K) of 0.000533. For the same compound, the solubility (mole fraction) (in acetonitrile, 273.15 K) was 7.2e-06, the solubility (mole fraction) (in acetonitrile, 278.15 K) was 9.3e-06 and the solubility (mole fraction) (in acetonitrile, 283.15 K) was 1.15e-05. For the same compound, the solubility (mole fraction) (in acetonitrile, 288.15 K) was 1.42e-05, the solubility (mole fraction) (in acetonitrile, 293.15 K) was 1.68e-05 and the solubility (mole fraction) (in acetonitrile, 298.15 K) was 1.98e-05. It also gave a solubility (mole fraction) (in acetonitrile, 303.15 K) of 2.35e-05, a solubility (mole fraction) (in acetonitrile, 308.15 K) of 2.79e-05 and a solubility (mole fraction) (in acetonitrile, 313.15 K) of 3.27e-05. It also gave a solubility (mole fraction) (in cyclohexanone, 273.15 K) of 0.000117, a solubility (mole fraction) (in cyclohexanone, 278.15 K) of 0.000146 and a solubility (mole fraction) (in cyclohexanone, 283.15 K) of 0.000181. It also gave a solubility (mole fraction) (in cyclohexanone, 288.15 K) of 0.000217, a solubility (mole fraction) (in cyclohexanone, 293.15 K) of 0.000252 and a solubility (mole fraction) (in cyclohexanone, 298.15 K) of 0.000287. It also gave a solubility (mole fraction) (in cyclohexanone, 303.15 K) of 0.000327, a solubility (mole fraction) (in ethanol, 273.15 K) of 5.33e-05 and a solubility (mole fraction) (in ethanol, 278.15 K) of 6.8e-05. It also gave a solubility (mole fraction) (in ethanol, 283.15 K) of 9.17e-05, a solubility (mole fraction) (in ethanol, 288.15 K) of 0.000124 and a solubility (mole fraction) (in ethanol, 293.15 K) of 0.000159. For the same compound, the solubility (mole fraction) (in ethanol, 298.15 K) was 0.000195, the solubility (mole fraction) (in ethanol, 303.15 K) was 0.000232 and the solubility (mole fraction) (in ethanol, 308.15 K) was 0.000273. The solubility (mole fraction) (in ethanol, 313.15 K) was 0.000319, the solubility (mole fraction) (in ethyl acetate, 273.15 K) was 2.48e-05 and the solubility (mole fraction) (in ethyl acetate, 278.15 K) was 3.34e-05. It also gave a solubility (mole fraction) (in ethyl acetate, 283.15 K) of 4.3e-05, a solubility (mole fraction) (in ethyl acetate, 288.15 K) of 5.26e-05 and a solubility (mole fraction) (in ethyl acetate, 293.15 K) of 6.41e-05. For the same compound, the solubility (mole fraction) (in ethyl acetate, 298.15 K) was 7.65e-05, the solubility (mole fraction) (in ethyl acetate, 303.15 K) was 8.91e-05 and the solubility (mole fraction) (in ethyl acetate, 308.15 K) was 0.000104. The solubility (mole fraction) (in ethyl acetate, 313.15 K) was 0.00012, the solubility (mole fraction) (in isobutanol, 273.15 K) was 9.3e-06 and the solubility (mole fraction) (in isobutanol, 278.15 K) was 1.3e-05. The solubility (mole fraction) (in isobutanol, 283.15 K) was 1.71e-05, the solubility (mole fraction) (in isobutanol, 288.15 K) was 2.18e-05 and the solubility (mole fraction) (in isobutanol, 293.15 K) was 2.71e-05. For the same compound, the solubility (mole fraction) (in isobutanol, 298.15 K) was 3.33e-05, the solubility (mole fraction) (in isobutanol, 303.15 K) was 4.11e-05 and the solubility (mole fraction) (in isobutanol, 308.15 K) was 4.98e-05. For the same compound, the solubility (mole fraction) (in isobutanol, 313.15 K) was 5.86e-05, the solubility (mole fraction) (in isopropanol, 273.15 K) was 1.12e-05 and the solubility (mole fraction) (in isopropanol, 278.15 K) was 1.63e-05. It also gave a solubility (mole fraction) (in isopropanol, 283.15 K) of 2.25e-05, a solubility (mole fraction) (in isopropanol, 288.15 K) of 2.89e-05 and a solubility (mole fraction) (in isopropanol, 293.15 K) of 3.83e-05. For the same compound, the solubility (mole fraction) (in isopropanol, 298.15 K) was 4.87e-05, the solubility (mole fraction) (in isopropanol, 303.15 K) was 6.13e-05 and the solubility (mole fraction) (in isopropanol, 308.15 K) was 7.76e-05. The solubility (mole fraction) (in isopropanol, 313.15 K) was 9.49e-05, the solubility (mole fraction) (in methanol, 273.15 K) was 0.000272 and the solubility (mole fraction) (in methanol, 278.15 K) was 0.000376. The solubility (mole fraction) (in methanol, 283.15 K) was 0.000476, the solubility (mole fraction) (in methanol, 288.15 K) was 0.00059 and the solubility (mole fraction) (in methanol, 293.15 K) was 0.000722. It also gave a solubility (mole fraction) (in methanol, 298.15 K) of 0.000854, a solubility (mole fraction) (in methanol, 303.15 K) of 0.001 and a solubility (mole fraction) (in methanol, 308.15 K) of 0.00115. It also gave a solubility (mole fraction) (in methanol, 313.15 K) of 0.0013, a solubility (mole fraction) (in n-butanol, 273.15 K) of 1.79e-05 and a solubility (mole fraction) (in n-butanol, 278.15 K) of 2.34e-05. The solubility (mole fraction) (in n-butanol, 283.15 K) was 3.1e-05, the solubility (mole fraction) (in n-butanol, 288.15 K) was 3.89e-05 and the solubility (mole fraction) (in n-butanol, 293.15 K) was 4.88e-05. It also gave a solubility (mole fraction) (in n-butanol, 298.15 K) of 6.01e-05, a solubility (mole fraction) (in n-butanol, 303.15 K) of 7.53e-05 and a solubility (mole fraction) (in n-butanol, 308.15 K) of 9.25e-05. It also gave a solubility (mole fraction) (in n-butanol, 313.15 K) of 0.000109, a solubility (mole fraction) (in n-octanol, 273.15 K) of 2e-06 and a solubility (mole fraction) (in n-octanol, 278.15 K) of 3.3e-06. The solubility (mole fraction) (in n-octanol, 283.15 K) was 4.9e-06, the solubility (mole fraction) (in n-octanol, 288.15 K) was 6.7e-06 and the solubility (mole fraction) (in n-octanol, 293.15 K) was 9.5e-06. It also gave a solubility (mole fraction) (in n-octanol, 298.15 K) of 1.38e-05, a solubility (mole fraction) (in n-octanol, 303.15 K) of 1.86e-05 and a solubility (mole fraction) (in n-octanol, 308.15 K) of 2.41e-05. It also gave a solubility (mole fraction) (in n-octanol, 313.15 K) of 3.01e-05, a solubility (mole fraction) (in n-propanol, 273.15 K) of 2.98e-05 and a solubility (mole fraction) (in n-propanol, 278.15 K) of 4.12e-05. The solubility (mole fraction) (in n-propanol, 283.15 K) was 5.26e-05, the solubility (mole fraction) (in n-propanol, 288.15 K) was 6.51e-05 and the solubility (mole fraction) (in n-propanol, 293.15 K) was 7.7e-05. It also gave a solubility (mole fraction) (in n-propanol, 298.15 K) of 9.09e-05, a solubility (mole fraction) (in n-propanol, 303.15 K) of 0.000106 and a solubility (mole fraction) (in n-propanol, 308.15 K) of 0.000124. The solubility (mole fraction) (in n-propanol, 313.15 K) was 0.000142.

From BigSolDB 2.1
